From patent US6579857B1, “Combination cancer therapy comprising adenosine and deaminase enzyme inhibitors” (Evanston Northwestern Healthcare Research Institute, priority 1999, dated 2003)
pKi: −log10 of the molar value. Where two headings read alike, the source gives them in different places.

How the values were obtained:
[1] = test system: two cultured human colon carcinoma cell lines and Chinese hamster ovary (CHO K-I) cells; conditions: cited from earlier work; for toxicity when used alone: deoxycoformycin .001 to 1 μM, 2′-deoxyadenosine 0 to 500 μM
neuronal cell = conditions: dose-dependent; cited from earlier work
[2] = test system: OVCAR3 ovarian cancer cells; assay: MTT cell viability assay, OVCAR3; conditions: for viability at 10 µM: Homo sapiens, OVCAR-3, 60 h, read-out: cell viability as a percentage of control
Method: For the experiments MCF7 breast cancer cells and OVCAR3 ovarian cancer cells (both obtained from the American Type Culture Collection (ATCC), Manassas, Va.) were cultured in RPMI 1640 media containing 10% fetal calf serum (Life Technologies, Gaithersburg, Md.). After 24 hours of culturing at 37° C. in 5% CO2, additional medium was added containing either adenosine (final concentration 10 μM), coformycin (final concentration 10 μM), or 10 μM each of adenosine and coformycin. Additional media alone was added to control cultures.
The cells were cultured in these chemotherapeutic media for an additional 60 hours, at which time the viability of the cells were determined using an MTT assay (Celltitre 98 Aqueous 1, Promega, Madison, Wis.).
The OVCAR3 ovarian cancer cell line was cultured as described in Example 1 for 24 hours and then treated with either 5 μM (final concentration) dipyridimole alone; 10 μM adenosine plus 10 μM coformycin alone; or the combination of these two treatments. In a control sample, culture media alone was added. The cultures were grown for an additional 60 hours and then analyzed for cell growth.
The same experiments were repeating using 5 μM (final concentration) 5′-amino-5′-deoxyadenosine alone; 5 μM adenosine plus 10 μM coformycin alone; or the combination of these two treatments.
The procedures described in Example 1 were repeated using the OVCAR 3 ovarian cancer cell line, and using as therapeutic agents 10 μM coformycin in combination with 10 μM of either adenosine, 2-chloroadenosine, 8-chloroadenosine, or 8-chloro-cAMP.

AMPDA = conditions: CF versus dCF; cited from earlier work
[3] = molecular target: T1, adenosine deaminase (ADA) (Homo sapiens, UniProt P00813); conditions: Cha et al. 1975; Agarwal et al. 1977; cited from earlier work
T1 sequence (P00813 1-363): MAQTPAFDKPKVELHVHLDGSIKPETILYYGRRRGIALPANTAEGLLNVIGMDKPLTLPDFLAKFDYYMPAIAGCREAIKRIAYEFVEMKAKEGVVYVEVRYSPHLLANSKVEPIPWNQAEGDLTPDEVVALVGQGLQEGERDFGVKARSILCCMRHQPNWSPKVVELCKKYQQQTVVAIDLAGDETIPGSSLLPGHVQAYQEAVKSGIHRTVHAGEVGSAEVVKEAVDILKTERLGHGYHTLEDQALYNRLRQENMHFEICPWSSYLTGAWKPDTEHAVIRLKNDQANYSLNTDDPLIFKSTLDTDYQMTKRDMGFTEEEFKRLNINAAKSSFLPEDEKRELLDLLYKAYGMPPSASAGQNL

[4] = test system: cell lines OVCAR 3, OVCAR 5, MCF7, and HT 29; assay: Adenosine with CF or dCF, tumor cell toxicity assay (Example 4); type: cell-based; conditions: 5 μM adenosine with 5 μM CF or 5 μM dCF; 60 hours
Method: (§1) Additional media alone was added to control cultures.
The procedures described in Example 1 were repeated using cell lines OVCAR 3, OVCAR 5, MCF7, and HT 29 and using 5 μM adenosine in combination with either 5 μM CF or 5 μM dCF as the therapeutic combination of agents.

MCF7 breast cancer cells = assay: MTT cell viability assay, MCF7; type: cell-based; conditions: Homo sapiens, read-out: cell viability as a percentage of control
Method: as §1

mouse melanoma cells = conditions: cited from earlier work
fibroblasts = conditions: cited from earlier work
lymphoid cells = conditions: cited from earlier work

Nc1ncnc2c1ncn2[C@H]1C[C@H](O)[C@@H](CO)O1 [2′-deoxyadenosine]
toxicity when used alone [1]: Neither compound was reported to be toxic when used alone
concentration required to approach full cell growth inhibition ([1]; in combination with deoxycoformycin): 50 to 150 µM
concentration of maximal neuronal cell toxicity (neuronal cell): 300 µM

NC[C@H]1O[C@@H](n2cnc3c(N)ncnc32)[C@H](O)[C@@H]1O [5′-amino-5′-deoxyadenosine]
block of toxic effects of Ado/CF combination ([2]; OVCAR3, 5 μM 5′-amino-5′-deoxyadenosine + 5 μM adenosine + 10 μM coformycin, 60 hours): essentially completely block
cell growth, agent alone ([2]; OVCAR3, 5 μM 5′-amino-5′-deoxyadenosine alone, 60 hours): ~80 % of control

OC[C@H]1O[C@@H](n2cnc3c2N=CNC[C@H]3O)[C@H](O)[C@@H]1O [coformycin]
fold more potent inhibitor of AMPDA (AMPDA): 50 fold
pKi [3]: 10.60
potentiation of adenosine toxicity [4]: consistently potentiated to toxicity of the adenosine to a greater extent than the deoxycoformycin
viability at 10 µM (MCF7 breast cancer cells; MCF7, 60 h): > 100%
viability at 10 µM [2]: > 100%

Nc1ncnc2c1ncn2[C@@H]1O[C@H](CO)[C@@H](O)[C@H]1O [adenosine]
concentration giving 80% growth inhibition (mouse melanoma cells): 50 µM
concentration required for similar (80%) growth inhibition (fibroblasts): 400 µM
viability at 10 µM (MCF7 breast cancer cells; MCF7, 10 μM final concentration of each agent, 60 hours): > 100%
viability at 10 µM [2]: > 100%
concentration required for similar (80%) growth inhibition (lymphoid cells): 5 µM

OCCN(CCO)c1nc(N2CCCCC2)c2nc(N(CCO)CCO)nc(N3CCCCC3)c2n1 [dipyridamole]
cell growth with protective agent added to Ado/CF ([2]; OVCAR3, 5 μM dipyridimole + 10 μM adenosine + 10 μM coformycin, 60 hours): approximating that of the untreated control
cell growth as percentage of the control ([2]; OVCAR3, 5 μM dipyridimole alone or 10 μM adenosine plus 10 μM coformycin alone, 60 hours): comparable to the control

OC[C@H]1O[C@@H](n2cnc3c2NC=NC[C@H]3O)C[C@@H]1O [deoxycoformycin]
toxicity when used alone [1]: Neither compound was reported to be toxic when used alone
